In patent publication US7138361B2, “Herbicidal heterocycles” (E. I. du Pont de Nemours and Company, priority 2000, dated 2006):

Assays:
Assay type in all cases: in vivo
[1] = system: duck salad (Heteranthera limosa); assay: Test C flooded paddy test; conditions: for Ducksalad plant response rating: Flooded Paddy, scale 0 to 100, 0 no effect, 100 complete control; for Plant response rating, Ducksalad: flooded paddy test, scale 0 to 100 (0 no effect, 100 complete control)
Description: (§1) At the same time, plants selected from these crop and weed species and also winter barley (Hordeum vulgare), blackgrass (Alopecurus myosuroides), canary grass (Phalaris minor), chickweed (Stellaria media), downy brome (Bromus tectorum), green foxtail (Setaria viridis), Italian ryegrass (Lolium multiflorum), wheat (Triticum aestivum), wild oat (Avena fatua) and windgrass (Apera spica-venti) were treated with postemergence applications of some of the test chemicals formulated in the same manner. Plants ranged in height from 2 to 18 cm (1- to 4-leaf stage) for postemergence treatments. Plant species in the flooded paddy test consisted of rice (Oryza saliva), smallflower flatsedge (Cyperus difformis), duck salad (Heteranthera limosa) and barnyardgrass (Echinochloa crus-galli) grown to the 2-leaf stage for testing. Treated plants and controls were maintained in a greenhouse for 12 to 14 days, after which time all species were compared to controls and visually evaluated. Plant response ratings, summarized in Table C, are based on a scale of 0 to 100 where 0 is no effect and 100 is complete control. A dash (-) response means no test result.

[2] = system: smallflower flatsedge (Cyperus difformis); assay: Test C flooded paddy test; conditions: for Flatsedge plant response rating: Flooded Paddy, scale 0 to 100, 0 no effect, 100 complete control; for Plant response rating, Flatsedge: flooded paddy test, scale 0 to 100 (0 no effect, 100 complete control)
Description: as §1

[3] = system: barnyardgrass (Echinochloa crus-galli); assay: Test C flooded paddy test; conditions: for Barnyardgrass plant response rating: Flooded Paddy, scale 0 to 100, 0 no effect, 100 complete control; for Plant response rating, Barnyardgrass: flooded paddy test, scale 0 to 100 (0 no effect, 100 complete control)
Description: as §1

rice (Oryza saliva) [4] = assay: Test C flooded paddy test; conditions: for Rice plant response rating: Flooded Paddy, scale 0 to 100, 0 no effect, 100 complete control; for Plant response rating, Rice: flooded paddy test, scale 0 to 100 (0 no effect, 100 complete control)
Description: as §1

[5] = system: Surinam grass (Brachiaria decumbens); assay: Test B postemergence
Text: (§2) Seeds selected from barnyardgrass (Echinochloa crus-galli), Surinam grass (Brachiaria decumbens), cocklebur (Xanthium strumarium), corn (Zea mays), crabgrass (Digitaria sanguinalis), giant foxtail (Setaria faberii), lambsquarters (Chenopodium album), morning glory (Ipomoea hederacea), pigweed (Amaranthus retroflexus), rice (Oryza saliva) and velvetleaf (Abutilon theophrasti) were planted and treated preemergence with test chemicals formulated in a non-phytotoxic solvent mixture which included a surfactant.
(§3) At the same time, plants selected from these crop and weed species and also blackgrass (Alopecurus myosuroides), wheat (Triticum aestivum) and wild oat (Avena fatua) were treated with postemergence applications of test chemicals formulated in the same manner. Plants ranged in height from 2 to 18 cm (1- to 4-leaf stage) for postemergence treatments. Plant species in the flooded paddy test consisted of rice (Oryza saliva), smallflower flatsedge (Cyperus difformis), duck salad (Heteranthera limosa) and barnyardgrass (Echinochloa crus-galli) grown to the 2-leaf stage for testing. Treated plants and controls were maintained in a greenhouse for 13 to 15 days, after which time all species were compared to controls and visually evaluated. Plant response ratings, summarized in Table B, are based on a scale of 0 to 100 where 0 is no effect and 100 is complete control. A dash (-) response means no test result.

[6] = system: crabgrass (Digitaria sanguinalis); assay: Test B postemergence
Text: as §2, §3

[7] = system: wheat (Triticum aestivum); assay: Test B postemergence
Text: as §2, §3

[8] = system: blackgrass (Alopecurus myosuroides); assay: Test B postemergence
Text: as §2, §3

[9] = system: giant foxtail (Setaria faberii); assay: Test B postemergence
Text: as §2, §3

[10] = system: pigweed (Amaranthus retroflexus); assay: Test B postemergence
Text: as §2, §3

[11] = system: lambsquarters (Chenopodium album); assay: Test B postemergence
Text: as §2, §3

corn (Zea mays) [12] = assay: Test B postemergence
Text: as §2, §3

[13] = system: velvetleaf (Abutilon theophrasti); assay: Test B postemergence
Text: as §2, §3

[14] = system: cocklebur (Xanthium strumarium); assay: Test B postemergence
Text: as §2, §3

[15] = system: morning glory (Ipomoea hederacea); assay: Test B postemergence
Text: as §2, §3

wild oat (Avena fatua) = assay: Test B postemergence
Text: as §2, §3

[16] = system: barnyardgrass (Echinochloa crus-galli); assay: Test B postemergence
Text: as §2, §3

[17] = system: Surinam grass (Brachiaria decumbens); assay: Test B preemergence
Text: as §2, §3

[18] = system: crabgrass (Digitaria sanguinalis); assay: Test B preemergence
Text: as §2, §3

[19] = system: giant foxtail (Setaria faberii); assay: Test B preemergence
Text: as §2, §3

[20] = system: pigweed (Amaranthus retroflexus); assay: Test B preemergence
Text: as §2, §3

[21] = system: lambsquarters (Chenopodium album); assay: Test B preemergence
Text: as §2, §3

corn (Zea mays) [22] = assay: Test B preemergence
Text: as §2, §3

[23] = system: velvetleaf (Abutilon theophrasti); assay: Test B preemergence
Text: as §2, §3

[24] = system: cocklebur (Xanthium strumarium); assay: Test B preemergence
Text: as §2, §3

[25] = system: morning glory (Ipomoea hederacea); assay: Test B preemergence
Text: as §2, §3

[26] = system: barnyardgrass (Echinochloa crus-galli); assay: Test B preemergence
Text: as §2, §3

rice (Oryza saliva) [27] = assay: Test B preemergence
Text: as §2, §3

[28] = Rate 125 g/ha, scale 0 (no effect) to 100 (complete control), 13 to 15 days
[29] = Rate 500 g/ha, scale 0 to 100, 0 is no effect, 100 is complete control, 13 to 15 days
[30] = Preemergence, Rate 500 g/ha, scale 0 to 100, 0 no effect, 100 complete control
[31] = preemergence, Rate 125 g/ha, scale of 0 to 100 where 0 is no effect and 100 is complete control, 13 to 15 days
[32] = Rate 125 g/ha, scale 0 to 100, 0 no effect, 100 complete control

Cc1c(Cl)cc(N2CCC(n3ccc(C(C)(C)C)n3)C2=O)cc1Cl (stereo not drawn) [Compound 74]
Ducksalad plant response rating ([1]; Rate 250 g/ha): 0
Ducksalad plant response rating ([1]; Rate 500 g/ha): 0
Plant response rating, Ducksalad ([1]; Rate 62 g/ha): 0
Plant response rating, Ducksalad ([1]; Rate 125 g/ha): 0
Flatsedge plant response rating ([2]; Rate 250 g/ha): 0
Flatsedge plant response rating ([2]; Rate 500 g/ha): 40
Plant response rating, Flatsedge ([2]; Rate 62 g/ha): 0
Plant response rating, Flatsedge ([2]; Rate 125 g/ha): 0
Barnyardgrass plant response rating ([3]; Rate 250 g/ha): 0
Barnyardgrass plant response rating ([3]; Rate 500 g/ha): 0
Plant response rating, Barnyardgrass ([3]; Rate 62 g/ha): 0
Plant response rating, Barnyardgrass ([3]; Rate 125 g/ha): 0
Rice plant response rating (rice (Oryza saliva) [4]; Rate 250 g/ha): 0
Rice plant response rating (rice (Oryza saliva) [4]; Rate 500 g/ha): 0
Plant response rating, Rice (rice (Oryza saliva) [4]; Rate 62 g/ha): 0
Plant response rating, Rice (rice (Oryza saliva) [4]; Rate 125 g/ha): 0
Plant response rating, Surinam grass [5, 28]: 0
Plant response rating, Surinam grass [5, 29]: 0
Plant response rating, Crabgrass [6, 28]: 0
Plant response rating, Crabgrass [6, 29]: 0
Plant response rating, Wheat [7, 28]: 0
Plant response rating, Wheat [7, 29]: 0
Plant response rating, Blackgrass [8, 28]: 0
Plant response rating, Blackgrass [8, 29]: 0
Plant response rating, Foxtail, Giant [9, 28]: 0
Plant response rating, Foxtail, Giant [9, 29]: 0
Plant response rating, Pigweed [10, 28]: 80
Plant response rating, Pigweed [10, 29]: 90
Plant response rating, Lambsquarters [11, 28]: 0
Plant response rating, Lambsquarters [11, 29]: 0
Plant response rating, Corn (corn (Zea mays) [12]; [28]): 0
Plant response rating, Corn (corn (Zea mays) [12]; [29]): 0
Plant response rating, Velvetleaf [13, 28]: 0
Plant response rating, Velvetleaf [13, 29]: 0
Plant response rating, Cocklebur [14, 28]: 0
Plant response rating, Cocklebur [14, 29]: 0
Plant response rating, Morningglory [15, 28]: 0
Plant response rating, Morningglory [15, 29]: 0
Plant response rating, Wild Oat (wild oat (Avena fatua); [28]): 0
Plant response rating, Wild Oat (wild oat (Avena fatua); [29]): 0
Plant response rating, Barnyardgrass [16, 28]: 0
Plant response rating, Barnyardgrass [16, 29]: 0
Plant response rating, Surinam grass [17, 30]: 20
Plant response rating, Surinam grass [17, 31]: 0
Plant response rating, Crabgrass [18, 30]: 70
Plant response rating, Crabgrass [18, 31]: 20
Plant response rating, Foxtail, Giant [19, 30]: 60
Plant response rating, Foxtail, Giant [19, 31]: 0
Plant response rating, Pigweed [20, 30]: 90
Plant response rating, Pigweed [20, 31]: 80
Plant response rating, Lambsquarters [21, 30]: 100
Plant response rating, Lambsquarters [21, 31]: 100
Plant response rating, Corn (corn (Zea mays) [22]; [30]): 0
Plant response rating, Corn (corn (Zea mays) [22]; [31]): 0
Plant response rating, Velvetleaf [23, 30]: 0
Plant response rating, Velvetleaf [23, 31]: 0
Plant response rating, Cocklebur [24, 30]: 0
Plant response rating, Cocklebur [24, 31]: 0
Plant response rating, Morningglory [25, 30]: 0
Plant response rating, Morningglory [25, 31]: 0
Plant response rating, Barnyardgrass [26, 30]: 90
Plant response rating, Barnyardgrass [26, 31]: 30
Plant response rating, Rice (rice (Oryza saliva) [27]; [30]): 0
Plant response rating, Rice (rice (Oryza saliva) [27]; [31]): 0

CCOc1cccc(N2CCC(n3ccc(C(C)CC)n3)C2=O)c1 (stereo not drawn) [Compound 126]
Ducksalad plant response rating ([1]; Rate 250 g/ha): 100
Ducksalad plant response rating ([1]; Rate 500 g/ha): 100
Plant response rating, Ducksalad ([1]; Rate 62 g/ha): 60
Plant response rating, Ducksalad ([1]; Rate 125 g/ha): 100
Flatsedge plant response rating ([2]; Rate 250 g/ha): 100
Flatsedge plant response rating ([2]; Rate 500 g/ha): 100
Plant response rating, Flatsedge ([2]; Rate 62 g/ha): 100
Plant response rating, Flatsedge ([2]; Rate 125 g/ha): 100
Barnyardgrass plant response rating ([3]; Rate 250 g/ha): 100
Barnyardgrass plant response rating ([3]; Rate 500 g/ha): 100
Plant response rating, Barnyardgrass ([3]; Rate 62 g/ha): 35
Plant response rating, Barnyardgrass ([3]; Rate 125 g/ha): 100
Rice plant response rating (rice (Oryza saliva) [4]; Rate 250 g/ha): 20
Rice plant response rating (rice (Oryza saliva) [4]; Rate 500 g/ha): 60
Plant response rating, Rice (rice (Oryza saliva) [4]; Rate 62 g/ha): 0
Plant response rating, Rice (rice (Oryza saliva) [4]; Rate 125 g/ha): 20
Plant response rating, Surinam grass [5, 32]: 0
Plant response rating, Surinam grass [5, 29]: 0
Plant response rating, Crabgrass [6, 32]: 0
Plant response rating, Wheat [7, 32]: 0
Plant response rating, Blackgrass [8, 32]: 0
Plant response rating, Blackgrass [8, 29]: 0
Plant response rating, Foxtail, Giant [9, 32]: 0
Plant response rating, Pigweed [10, 32]: 30
Plant response rating, Lambsquarters [11, 32]: 100
Plant response rating, Corn (corn (Zea mays) [12]; [32]): 0
Plant response rating, Corn (corn (Zea mays) [12]; [29]): 0
Plant response rating, Velvetleaf [13, 32]: 0
Plant response rating, Cocklebur [14, 32]: 0
Plant response rating, Cocklebur [14, 29]: 70
Plant response rating, Morningglory [15, 32]: 0
Plant response rating, Wild Oat (wild oat (Avena fatua); [32]): 0
Plant response rating, Barnyardgrass [16, 32]: 0
Plant response rating, Barnyardgrass [16, 29]: 80
Plant response rating, Surinam grass [17, 30]: 100
Plant response rating, Surinam grass [17, 31]: 100
Plant response rating, Crabgrass [18, 30]: 100
Plant response rating, Crabgrass [18, 31]: 100
Plant response rating, Foxtail, Giant [19, 30]: 100
Plant response rating, Foxtail, Giant [19, 31]: 100
Plant response rating, Pigweed [20, 30]: 100
Plant response rating, Pigweed [20, 31]: 100
Plant response rating, Lambsquarters [21, 30]: 100
Plant response rating, Lambsquarters [21, 31]: 100
Plant response rating, Corn (corn (Zea mays) [22]; [30]): 50
Plant response rating, Corn (corn (Zea mays) [22]; [31]): 30
Plant response rating, Velvetleaf [23, 30]: 60
Plant response rating, Velvetleaf [23, 31]: 0
Plant response rating, Cocklebur [24, 30]: 70
Plant response rating, Cocklebur [24, 31]: 50
Plant response rating, Morningglory [25, 30]: 100
Plant response rating, Morningglory [25, 31]: 70
Plant response rating, Barnyardgrass [26, 30]: 100
Plant response rating, Barnyardgrass [26, 31]: 100
Plant response rating, Rice (rice (Oryza saliva) [27]; [30]): 100
Plant response rating, Rice (rice (Oryza saliva) [27]; [31]): 70
